Test results taken from PubChem BioAssay (NCI).
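1) Cells in 96-well plates. 2) Compound, 48 h, 5 concentrations. 3) Linear interpolation between surrounding doses. 4) Unreached endpoint = highest concentration. At the GI50, growth is halved. Definition used: TGI = concentration required for complete inhibition of growth.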

Assays:
Experiment in all cases: DTP human tumour cell line panel, 48 h
[1] = system: ACHN renal
[2] = system: CCRF-CEM leukemia
[3] = system: HOP-92 NSCLC
[4] = system: HT29 colon
[5] = system: K-562 leukemia
[6] = system: KM12 colon
[7] = system: MDA-MB-231 breast
[8] = system: SK-MEL-28 melanoma
[9] = system: U251 CNS
[10] = system: UACC-62 melanoma

Row | SMILES | GI50 [1] | TGI [1] | GI50 [2] | TGI [2] | GI50 [3] | TGI [3] | GI50 [4] | TGI [4] | GI50 [5] | TGI [5] | GI50 [6] | TGI [6] | GI50 [7] | TGI [7] | GI50 [8] | TGI [8] | GI50 [9] | TGI [9] | GI50 [10] | TGI [10]
1 | Cc1ccc(NC(=O)/C=C/c2ccccc2)c(C(N)=O)c1 | 11 µM | > 96.6 µM | 2330 nM | > 29.2 µM | 15.5 µM | > 100 µM | 2.36 µM | 30.8 µM | 1060 nM | > 100 µM | 2.44 µM | 35.5 µM | 5.37 µM | > 95.7 µM | 3.65 µM | > 100 µM | 3.8 µM | > 100 µM | 3.44 µM | > 80.8 µM
2 | COC(=O)Cn1c2c(c3c(O)cccc31)C(=O)c1ccccc1-2 | > 100 µM | > 100 µM | > 100000 nM | > 100 µM | 27 µM | > 100 µM | > 100 µM | > 100 µM | > 100000 nM | > 100 µM | > 100 µM | > 100 µM | 40.4 µM | > 100 µM | > 100 µM | > 100 µM | 79.2 µM | > 100 µM | > 100 µM | > 100 µM
3 | CCCn1c(C)nc2c1C(=O)c1ccccc1C2=O | 37.7 µM | > 100 µM | 15600 nM | > 100 µM | > 100 µM | > 100 µM | 25.8 µM | 71.6 µM | 9870 nM | > 100 µM | 32.2 µM | > 100 µM | 34.1 µM | > 100 µM | > 100 µM | > 100 µM | 22.4 µM | > 100 µM | 22.1 µM | 67.7 µM
4 | COC(=O)C(Cc1ccccc1)NC(=O)NC(=O)NC(=O)CI (stereo not drawn) | 1.85 µM | 3.62 µM | 1140 nM | 3.81 µM | 2.51 µM | 5.51 µM | 14.2 µM | 49.9 µM | 2090 nM | 5.08 µM | 15.8 µM | 32.6 µM | 5.2 µM | 20.1 µM | 3.5 µM | 13.8 µM | 16.6 µM | 30.5 µM | 12.3 µM | 26 µM
5 | O=C1C(=O)c2c(nc3ccc(Cl)cn23)-c2ccccc21 | 0.591 µM | 1.88 µM | 411 nM | 3.68 µM | 0.674 µM | 1.98 µM | 3.26 µM | 19.8 µM | 163 nM | > 100 µM | 1.78 µM | 3.89 µM | 0.296 µM | 3.95 µM | 0.253 µM | 0.557 µM | 0.274 µM | 0.721 µM | 0.285 µM | 0.904 µM
6 | C[C@]12CCC3[C@@H](CC[C@@H]4c5nonc5CC[C@]34C)C1CCC(=O)N2 (stereo partly drawn) | – | > 100 µM | – | > 100 µM | 40.4 µM | > 95.1 µM | – | > 100 µM | – | > 100 µM | – | > 100 µM | > 100 µM | > 100 µM | – | > 100 µM | – | > 100 µM | > 84 µM | > 100 µM
7 | COc1cccc(NC(=O)c2sc3nc4c(cc3c2N)CN(Cc2ccccc2)CC4)c1 | 3.46 µM | 64.5 µM | 29500 nM | > 100 µM | 2.21 µM | 24.1 µM | 3.75 µM | 15.2 µM | 530 nM | > 100 µM | 11.8 µM | 40.3 µM | 11.4 µM | 75.3 µM | 2.8 µM | 29.7 µM | 2.74 µM | 19.2 µM | 1.92 µM | 29.8 µM
